From PubChem BioAssay (NCI)
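1) Cells in 96-well plates. 2) Compound, 48 h, 5 concentrations. 3) Linear interpolation between surrounding doses. 4) Unreached endpoint = highest concentration. TGI denotes the concentration required for complete inhibition of growth.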

What was measured:
Assay in all cases: inhibition of tumour cell growth, NCI panel, 48 h
SF-268 CNS = test system: SF-268 CNS
HT29 colon = test system: HT29 colon
SF-295 CNS = test system: SF-295 CNS
EKVX NSCLC = test system: EKVX NSCLC
SW-620 colon = test system: SW-620 colon
A549 NSCLC = test system: A549 NSCLC
SF-539 CNS = test system: SF-539 CNS
OVCAR-5 ovarian = test system: OVCAR-5 ovarian
T-47D breast = test system: T-47D breast
M14 melanoma = test system: M14 melanoma
TK-10 renal = test system: TK-10 renal
CAKI-1 renal = test system: CAKI-1 renal
CCRF-CEM leukemia = test system: CCRF-CEM leukemia
UACC-62 melanoma = test system: UACC-62 melanoma
HOP-62 NSCLC = test system: HOP-62 NSCLC
UACC-257 melanoma = test system: UACC-257 melanoma
SR leukemia = test system: SR leukemia
MDA-MB-435 = test system: MDA-MB-435
RXF 393 renal = test system: RXF 393 renal
SK-MEL-28 melanoma = test system: SK-MEL-28 melanoma

Structure (SMILES) | TGI (SF-268 CNS) [µM] | TGI (HT29 colon) [µM] | TGI (SF-295 CNS) [µM] | TGI (EKVX NSCLC) [µM] | TGI (SW-620 colon) [µM] | TGI (A549 NSCLC) [µM] | TGI (SF-539 CNS) [µM] | TGI (OVCAR-5 ovarian) [µM] | TGI (T-47D breast) [µM] | TGI (M14 melanoma) [µM] | TGI (TK-10 renal) [µM] | TGI (CAKI-1 renal) [µM] | TGI (CCRF-CEM leukemia) [µM] | TGI (UACC-62 melanoma) [µM] | TGI (HOP-62 NSCLC) [µM] | TGI (UACC-257 melanoma) [µM] | TGI (SR leukemia) [µM] | TGI (MDA-MB-435) [µM] | TGI (RXF 393 renal) [µM] | TGI (SK-MEL-28 melanoma) [µM]
CCCCCCC1CC(=O)C1(Cl)Cl (centres undefined) | 66.5 | 66.8 | > 100 | > 100 | > 100 | > 100 | > 100 | > 100 | > 100 | 62.6 | > 100 | 33.3 | 29.6 | 47.8 | > 100 | 41.1 | – | – | – | –
NNc1ncc2c(n1)-c1ccccc1OC2 | > 100 | > 100 | > 100 | > 100 | > 100 | > 100 | > 100 | > 100 | – | > 100 | > 100 | > 100 | > 100 | > 100 | > 100 | > 100 | > 100 | > 100 | > 100 | > 100
CSc1nc(Br)nc2ncn(C3CC(Oc4ccc(C)cc4)C(COc4ccc(C)cc4)O3)c12 (centres undefined) | > 100 | > 100 | > 100 | > 100 | > 100 | > 100 | > 100 | > 100 | > 100 | > 100 | > 100 | > 100 | > 100 | > 100 | > 100 | > 100 | – | > 100 | – | > 100
O=c1c2cc(S(=O)(=O)Nc3ccc(Cl)cc3Cl)ccc2ncn1NS(=O)(=O)c1cccc2ccccc12 | > 100 | > 100 | > 100 | > 100 | > 100 | > 100 | > 100 | > 100 | – | > 100 | > 100 | 85.7 | 47.7 | > 100 | > 100 | > 100 | 70.6 | > 100 | – | > 100
CCOC(=O)CC(NCc1ccc(N=Cc2nc3ccc(C(F)(F)F)cc3nc2-c2ccccc2)cc1)C(=O)OCC (centres undefined) | > 100 | > 100 | > 100 | > 100 | > 100 | > 100 | > 58 | > 100 | – | > 100 | > 80.6 | > 100 | > 100 | 68.3 | > 81.7 | > 100 | > 100 | – | 56 | > 100
COc1c(C)c(O)c2c(c1C)OC(c1ccccc1)CC2=O (centres undefined) | > 100 | > 100 | > 100 | > 100 | > 100 | > 100 | > 100 | > 100 | – | > 100 | > 100 | > 100 | > 100 | > 100 | > 100 | – | 75.5 | – | – | > 100
Cc1c/c(=N/NC(=O)c2ccncc2)n2nc(N)sc2n1 | – | > 100 | > 100 | > 100 | > 100 | > 100 | > 100 | > 100 | – | > 100 | – | > 100 | > 100 | > 100 | > 100 | > 100 | > 100 | > 100 | > 100 | > 100
Cc1nc2ccc(N)cc2[nH]c1=O | – | – | > 100 | > 100 | > 100 | > 100 | > 100 | > 100 | – | > 100 | > 100 | > 100 | > 100 | > 100 | > 100 | > 100 | – | – | – | –
Cc1cc2cc3ccccc3cc2c(=O)[nH]1 | > 10 | > 10 | > 10 | > 10 | > 10 | > 10 | > 10 | > 10 | – | > 10 | > 10 | – | > 10 | > 10 | – | > 10 | > 10 | > 10 | > 10 | –
CCOC(=O)c1c2ccc(/C=C/c3ccccc3)ccc-2c(C(=O)OCC)c1N | > 100 | > 100 | > 100 | > 100 | > 100 | > 100 | > 100 | > 100 | – | > 100 | > 100 | > 100 | > 100 | > 100 | – | > 100 | > 100 | – | > 100 | > 100
COc1c(Br)cc(/C=C(\C#N)c2ccccn2)cc1Br | > 100 | > 100 | > 100 | 50.9 | > 100 | > 100 | > 100 | > 100 | – | > 100 | > 100 | > 100 | > 100 | 73.8 | 89.1 | > 100 | > 100 | – | 75.1 | > 100
COC(=O)/C=C(\C)CC/C=C(\C)CCC(O)C(C)(C)O (centres undefined) | – | > 100 | 61.6 | > 100 | 53.5 | > 100 | 35.9 | > 100 | – | 81.3 | > 100 | 48.5 | 41.8 | 77.9 | 78 | > 100 | 44.6 | – | 59.9 | 38.2
C[N+]1(C)C[C@@H](O)C[C@@H]1C(=O)[O-] | > 100 | > 100 | > 100 | > 100 | > 100 | > 100 | > 100 | – | – | > 100 | > 100 | – | > 100 | > 100 | > 100 | > 100 | > 100 | – | > 100 | > 100
